The conditions of series [1]: cited from earlier work.
Series [2] has as its system Caco-2 monolayers. The experiment in a line: Caco-2 monolayer drug transport assay. The conditions noted are these: Fig. 6; 2 h; LC-MS.
The subject of series [3] is Caco-2 monolayers.
The test system of series [4] is Caco-2 monolayers. The conditions noted are these: standard Caco-2 assay on collagen type-I; cited from earlier work.

SMILES strings stand for the structures. Like-named read-outs stand apart in the source and are kept apart here. Bounds are passed on as bounds.

Regarding `C[C@@H]1C[C@H]2[C@@H]3CCC4=CC(=O)C=C[C@]4(C)[C@@]3(F)[C@@H](O)C[C@]2(C)[C@@]1(O)C(=O)CO` [dexamethasone], in series [1], the in vivo absorption is recorded as more than 85%.
`NC(N)=Nc1nc(CSCCC(N)=NS(N)(=O)=O)cs1` [famotidine]: the in vivo absorption in series [1] is given as 35%.
As to `CC(C)(C)NCC(O)COc1cccc2c1CC(O)C(O)C2` (stereo not shown) [nadolol], the in vivo absorption in series [1] is listed as 45%. In addition, the “Papp for cells on eECM with decreased CBD and decreased stiffness compared to cells grown on collagen” value in series [2] is “significantly higher”.
For `CNC(=C[N+](=O)[O-])NCCSCc1ccc(CN(C)C)o1` [ranitidine], in series [3], the “Papp for cells on eECM with decreased CBD and decreased stiffness compared to cells grown on collagen” value is recorded as “significantly higher”. Besides, the “absorption predicted by the Caco-2 assay” value in series [4] was “little to no absorption”. Also, in series [1], the in vivo absorption is on record as 51%.

These data come from article PMC5572671 (Biomaterials, 2017).
